Key:
Assay type in all cases: cell-based
[1] = system: PI3Kα H1047R mutated cell line T-47D; experiment: Phospho-AKT (Ser473) Inhibition Assay (HTRF), T-47D; conditions: for IC50: Homo sapiens, T47D, T-47D, 1 hour treatment, read-out: p-AKT Inhibition assay (S473) IC50 T-47D; for Selectivity: SK-BR-3/T-47D (p-AKT): p-AKT (S473) IC50 ratio
How it was run: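 Cells seeded overnight in insulin-supplemented MEM, then treated 1 h with 11-point 1:3 compound dilutions (10 μM to 0.1 nM final, 0.1% DMSO). Lysates assayed for phospho-AKT Ser473 by HTRF; IC50 from 4-parameter logistic fit, normalised to DMSO (max) and 10 μM GDC0077 (min).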

WT cell line SK-BR-3 [2] = experiment: Phospho-AKT (Ser473) Inhibition Assay (HTRF), SK-BR-3; conditions: Homo sapiens; SK-BR-3, 1 hour treatment; read-out: p-AKT Inhibition assay (S473) IC50 SK-BR-3
How it was run: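 SK-BR-3 (PI3Kα WT) cells seeded overnight in MEM with insulin, then treated 1 h with 11-point 1:3 dilutions (10 μM to 0.1 nM, 0.1% DMSO). Lysates read for phospho-AKT Ser473 by HTRF after 4 h antibody incubation at room temperature. IC50 from 4-parameter fit, % inhibition normalized to DMSO (max) and 10 μM GDC0077 (min).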

[3] = system: PI3Kα H1047R mutated cell line T-47D cells; experiment: Cell Proliferation Assay (CellTiter-Glo), T-47D; conditions: for IC50: Homo sapiens, T47D, 72 h, T-47D, 3 days treatment; for Selectivity: SK-BR-3/T-47D (cell proliferation): cell proliferation IC50 ratio
How it was run: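 T-47D cells seeded overnight at 3×10^3/well, then exposed 3 days to 9-point 1:3 dilutions, final […] to 1 nM in 0.1% DMSO. CellTiter-Glo luminescence; relative IC50 from percent inhibition versus medium-only and 0.1% DMSO controls, 4-parameter logistic fit.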

WT cell line SK-BR-3 [4] = experiment: Cell Proliferation Assay (CellTiter-Glo), SK-BR-3; conditions: Homo sapiens, 72 h; SK-BR-3, 3 days treatment
How it was run: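 SK-BR-3 cells treated for 3 days with compound in a 9-point series, final concentrations 10 M to 1 nM in 0.1% DMSO. Viability read by CellTiter-Glo luminescence. Relative IC50 from percent inhibition versus medium-only and DMSO controls, four-parameter logistic fit.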

IC50 [1]	IC50 (WT cell line SK-BR-3 [2])	IC50 [3]	IC50 (WT cell line SK-BR-3 [4])	SMILES	Selectivity: SK-BR-3/T-47D (p-AKT) [1]	Selectivity: SK-BR-3/T-47D (cell proliferation) [3]
0.184 µM	6.84 µM	0.938 µM	> 10 µM	Cc1cc(C(C)Nc2ccccc2C(=O)O)c2cc(C#CC3(O)CCCC3)n(C)c(=O)c2c1 (stereo not drawn) [Example 89, 2-((1-(3-((1-hydroxycyclopentyl)ethynyl)-2,7-dimethyl-1-oxo-1,2-dihydroisoquinolin-5-yl)ethyl)amino)benzoic acid]	37.2	>11
0.0866 µM	6.85 µM	3.23 µM	> 10 µM	Cc1cc(C(C)Nc2ccccc2C(=O)O)c2cc(-c3cccc(C(F)(F)F)c3)n(C)c(=O)c2c1 (stereo not drawn) [Example 50, 2-((1-(2,7-dimethyl-1-oxo-3-(3-(trifluoromethyl)phenyl)-1,2-dihydroisoquinolin-5-yl)ethyl)amino)benzoic acid]	79.1	>3.1
0.0409 µM	1.87 µM	0.77 µM	> 10 µM	CCn1c(-c2ccc(F)cc2)cc2c(C(C)Nc3ccc(Cl)nc3C(=O)O)cc(C)cc2c1=O (stereo not drawn) [Example 81, 6-chloro-3-((1-(2-ethyl-3-(4-fluorophenyl)-7-methyl-1-oxo-1,2-dihydroisoquinolin-5-yl)ethyl)amino)picolinic acid]	45.6	>13
0.0924 µM	5.07 µM	0.21 µM	> 10 µM	Cc1cc(C(C)Nc2ccccc2C(=O)O)c2cc(C3=CCN(c4ccccc4)CC3)n(C)c(=O)c2c1 (stereo not drawn) [Example 46, 2-((1-(2,7-dimethyl-1-oxo-3-(1-phenyl-1,2,3,6-tetrahydropyridin-4-yl)-1,2-dihydroisoquinolin-5-yl)ethyl)amino)benzoic acid]	54.8	>48
1.11 µM	6.17 µM	0.496 µM	> 10 µM	Cc1cc(C(C)Nc2ccccc2C(=O)O)c2cc(-c3ccc4nn(C)cc4n3)n(C)c(=O)c2c1 (stereo not drawn) [Example 39, 2-((1-(2,7-dimethyl-3-(2-methyl-2H-pyrazolo[4,3-b]pyridin-5-yl)-1-oxo-1,2-dihydroisoquinolin-5-yl)ethyl)amino)benzoic acid]	5.6	>20
0.167 µM	6.45 µM	0.0945 µM	> 10 µM	Cc1cc(C(C)Nc2ccccc2C(=O)O)c2cc(-c3ccc(C(C)(C)O)cc3)n(C)c(=O)c2c1 (stereo not drawn) [Example 51, 2-((1-(3-(4-(2-hydroxypropan-2-yl)phenyl)-2,7-dimethyl-1-oxo-1,2-dihydroisoquinolin-5-yl)ethyl)amino)benzoic acid]	38.7	>106
0.0447 µM	2.53 µM	0.815 µM	> 10 µM	Cc1cc(C(C)Nc2ccccc2C(=O)O)c2cc(-c3ccc4c(c3)C3CC3O4)n(C)c(=O)c2c1 (stereo not drawn) [Example 53, 2-((1-(3-(1a,6b-dihydro-1H-cyclopropa[b]benzofuran-5-yl)-2,7-dimethyl-1-oxo-1,2-dihydroisoquinolin-5-yl)ethyl)amino)benzoic acid]	56.6	>12
2.8 µM	> 10 µM	0.908 µM	> 10 µM	Cc1cc(C(C)Nc2ccccc2C(=O)O)c2cc(-c3cnc(C(C)(C)O)nc3)n(C)c(=O)c2c1 (stereo not drawn) [Example 66, 2-((1-(3-(2-(2-hydroxypropan-2-yl)pyrimidin-5-yl)-2,7-dimethyl-1-oxo-1,2-dihydroisoquinolin-5-yl)ethyl)amino)benzoic acid]	>3.57	>11
0.0664 µM	2.5 µM	0.158 µM	> 10 µM	Cc1cc(C(C)Nc2ccccc2C(=O)O)c2cc(-c3ccc(F)cc3)n(C)c(=O)c2c1 (stereo not drawn) [Example 8, 2-((1-(3-(4-fluorophenyl)-2,7-dimethyl-1-oxo-1,2-dihydroisoquinolin-5-yl)ethyl)amino)benzoic acid]	37.7	>63
0.103 µM	1.7 µM	0.147 µM	> 10 µM	Cc1cc(C(C)Nc2ccccc2C(=O)O)c2cc(-c3ccc(-c4cnn(C)c4)cc3)n(C)c(=O)c2c1 (stereo not drawn) [Example 23, 2-((1-(2,7-dimethyl-3-(4-(1-methyl-1H-pyrazol-4-yl)phenyl)-1-oxo-1,2-dihydroisoquinolin-5-yl)ethyl)amino)benzoic acid]	16.6	>68
0.467 µM	> 10 µM	1.42 µM	> 10 µM	Cc1cc(C(C)Nc2ccccc2C(=O)O)c2cc(-c3ccccn3)n(C)c(=O)c2c1 (stereo not drawn) [Example 36, 2-((1-(2,7-dimethyl-1-oxo-3-(pyridin-2-yl)-1,2-dihydroisoquinolin-5-yl)ethyl)amino)benzoic acid]	>21	>7.04
0.559 µM	2.13 µM	4.77 µM	> 10 µM	Cc1cc(C(C)Nc2ccccc2C(=O)O)c2cc(/C=C/c3ccccc3)n(C)c(=O)c2c1 (stereo not drawn) [Example 44, (E)-2-((1-(2,7-dimethyl-1-oxo-3-styryl-1,2-dihydroisoquinolin-5-yl)ethyl)amino)benzoic acid]	3.8	>2.1
0.13 µM	2.97 µM	0.118 µM	> 10 µM	Cc1cc(C(C)Nc2ccccc2C(=O)O)c2cc(-c3ccc(C4(O)CC4)cc3)n(C)c(=O)c2c1 (stereo not drawn) [Example 62, 2-((1-(3-(4-(1-hydroxycyclopropyl)phenyl)-2,7-dimethyl-1-oxo-1,2-dihydroisoquinolin-5-yl)ethyl)amino)benzoic acid]	22.9	>85
0.06 µM	3.12 µM	0.465 µM	> 10 µM	Cc1cc(C(C)Nc2ccccc2C(=O)O)c2cc(-c3ccc(N4CCCC4)cc3)n(C)c(=O)c2c1 (stereo not drawn) [Example 84, 2-((1-(2,7-dimethyl-1-oxo-3-(4-(pyrrolidin-1-yl)phenyl)-1,2-dihydroisoquinolin-5-yl)ethyl)amino)benzoic acid]	52.0	>22
0.0632 µM	2.06 µM	0.232 µM	> 10 µM	COc1ccc(-c2cc3c(C(C)Nc4ccccc4C(=O)O)cc(C)cc3c(=O)n2C)cc1 (stereo not drawn) [Example 14, 2-((1-(3-(4-methoxyphenyl)-2,7-dimethyl-1-oxo-1,2-dihydroisoquinolin-5-yl)ethyl)amino)benzoic acid]	32.5	>43
0.409 µM	1.64 µM	0.62 µM	> 10 µM	Cc1cc(C(C)Nc2ccccc2C(=O)O)c2cc(C#Cc3ccccc3)n(C)c(=O)c2c1 (stereo not drawn) [Example 43, 2-((1-(2,7-dimethyl-1-oxo-3-(phenylethynyl)-1,2-dihydroisoquinolin-5-yl)ethyl)amino)benzoic acid]	4.0	>16

— US20260125346A1, “Isoquinolinone Derivatives and 4H-Quinolizinone Derivatives and Pharmaceutical Compositions Thereof for the Treatment of Disease” (BeOne Medicines I GmbH, priority 2023, published 2026)
